Experimental data: ChEMBL document CHEMBL1126901, “2-Thio derivatives of dUrd and 5-fluoro-dUrd and their 5'-monophosphates: synthesis, interaction with tumor thymidylate synthase, and in vitro antitumor activity” (J Med Chem, 1993)

Columns and labels:
[1] = molecular target: Thymidylate synthase (Mus musculus) (UniProt P07607)
Description: The time dependent reaction (k2''(1/min)) of compound was measured for inactivation of L1210 Thymidylate Synthase

Thymidylate synthase [2] = molecular target: T1, Thymidylate synthase (Mus musculus, UniProt P07607); assay: Apparent Ki value was measured by competitive inhibition of Thymidylate Synthase from Ehrlich Carcinoma cells of mouse; type: cell-based
[3] = molecular target: Thymidylate synthase (Mus musculus) (UniProt P07607); remark: listed apart in the source
Description: The time dependent reaction (k2''(1/min)) of compound was measured for inactivation of Ehrlich Carcinoma Thymidylate Synthases

Thymidylate synthase [4] = molecular target: T1, Thymidylate synthase; assay: Apparent Ki value was measured by competitive inhibition of Thymidylate Synthase from L1210 cells of mouse; type: cell-based
[5] = molecular target: Thymidylate synthase (Mus musculus) (UniProt P07607); remark: listed apart in the source
Description: The reaction rate(Ki') of compound was measured for inactivation of L1210 Thymidylate Synthase

[6] = molecular target: Thymidylate synthase (Mus musculus) (UniProt P07607); remark: listed apart in the source
Description: The reaction rate(Ki'') of compound was measured for inactivation of L1210 Thymidylate Synthase

[7] = molecular target: Thymidylate synthase (Mus musculus) (UniProt P07607); remark: listed apart in the source
Description: The time dependent reaction (k2''(1/min)) of compound was measured for inactivation of Ehrlich Carcinoma Thymidylate Synthase

[8] = molecular target: Thymidylate synthase (Mus musculus) (UniProt P07607); remark: listed apart in the source
Description: The reaction rate(Ki') of compound was measured for inactivation of Ehrlich Carcinoma Thymidylate Synthases

[9] = molecular target: Thymidylate synthase (Mus musculus) (UniProt P07607); remark: listed apart in the source
Description: The reaction rate(Ki'') of compound was measured for inactivation of Ehrlich Carcinoma Thymidylate Synthases

[10] = molecular target: Thymidylate synthase (Mus musculus) (UniProt P07607); remark: listed apart in the source
Description: The time dependent reaction (k2'(1/min)) of compound was measured for inactivation of L1210 Thymidylate Synthase

NIH3T3 [11] = assay: Inhibitory concentration was calculated on 3T3 cells by using growth assay; type: functional, cell-based, Mus musculus
L5178Y [12] = assay: Inhibitory concentration of compound was calculated on L5178Y cells by [14C]Leu incorporation; type: functional, cell-based, Mus musculus
L5178Y [13] = assay: Inhibitory concentration of compound was calculated on L5178Y cells by using clonal assay; type: functional, cell-based, Mus musculus
NIH3T3 [14] = assay: Inhibitory concentration of compound was calculated on 3T3 cells by [14C]Leu incorporation; type: functional, cell-based, Mus musculus
NIH3T3 [15] = assay: Inhibitory concentration of compound was calculated on 3T3 cells by using clonal assay; type: functional, cell-based, Mus musculus
L5178Y [16] = assay: Inhibitory concentration of compound was calculated on L5178Y cells by using growth assay; type: functional, cell-based, Mus musculus
NIH3T3 [17] = assay: Inhibitory concentration of compound rwas calculated on 3T3 cells by [3H]Thd incorporation; type: functional, cell-based, Mus musculus
L5178Y [18] = assay: Inhibitory concentration of compound rwas calculated on L5178Y cells by [3H]Thd incorporation; type: functional, cell-based, Mus musculus
[19] = molecular target: Thymidylate synthase (Mus musculus) (UniProt P07607); remark: listed apart in the source
Description: The time dependent reaction (k2'(1/min)) of compound was measured for inactivation of Ehrlich Carcinoma Thymidylate Synthases

[20] = molecular target: Thymidylate synthase (Mus musculus) (UniProt P07607); remark: listed apart in the source
Description: The reaction rate(Ki') of compound was measured for inactivation of L1210 Thymidylate Synthases

[21] = molecular target: Thymidylate synthase (Mus musculus) (UniProt P07607); remark: listed apart in the source
Description: The time dependent reaction (k2''(1/min)) of compound was measured for inactivation of L1210 Thymidylate Synthases

[22] = molecular target: Thymidylate synthase (Mus musculus) (UniProt P07607); remark: listed apart in the source
Description: The reaction rate(Ki'') of compound was measured for inactivation of L1210 Thymidylate Synthases

[23] = molecular target: Thymidylate synthase (Mus musculus) (UniProt P07607); remark: listed apart in the source
Description: The time dependent reaction (k2'(1/min)) of compound was measured for inactivation of L1210 Thymidylate Synthases

Thymidylate synthase (Mus musculus), sequence (P07607 whole entry, looked up): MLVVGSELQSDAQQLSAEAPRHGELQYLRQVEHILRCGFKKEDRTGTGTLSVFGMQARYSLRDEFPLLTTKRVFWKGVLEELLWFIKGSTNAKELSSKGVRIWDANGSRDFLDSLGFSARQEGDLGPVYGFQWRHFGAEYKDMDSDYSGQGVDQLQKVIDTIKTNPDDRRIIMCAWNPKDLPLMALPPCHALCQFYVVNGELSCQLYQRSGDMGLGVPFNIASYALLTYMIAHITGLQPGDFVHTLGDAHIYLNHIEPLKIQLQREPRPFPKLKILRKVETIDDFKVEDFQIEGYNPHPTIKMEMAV
T1 sequence (P07607 whole entry): as the sequence (P07607 whole entry, looked up) above

Compound | k2' [3] [min⁻¹] | Ki' [8] [µM] | Ki'' [9] [µM] | IC50 (NIH3T3 [11]; nih3t3) [µM] | IC50 (L5178Y [12]; l5178y) [µM] | IC50 (L5178Y [13]; l5178y) [µM] | IC50 (NIH3T3 [14]; nih3t3) [µM] | IC50 (NIH3T3 [15]; nih3t3) [µM] | IC50 (L5178Y [16]; l5178y) [µM] | IC50 (NIH3T3 [17]; nih3t3) [µM] | IC50 (L5178Y [18]; l5178y) [µM] | IC50 (NIH3T3 [11]; Mus musculus, NIH3T3) [µM] | IC50 (L5178Y [12]; Mus musculus, L5178Y) [µM] | IC50 (L5178Y [13]; Mus musculus, L5178Y) [µM] | IC50 (NIH3T3 [14]; Mus musculus, NIH3T3) [µM] | IC50 (NIH3T3 [15]; Mus musculus, NIH3T3) [µM] | IC50 (L5178Y [16]; Mus musculus, L5178Y) [µM] | IC50 (NIH3T3 [17]; Mus musculus, NIH3T3) [µM] | IC50 (L5178Y [18]; Mus musculus, L5178Y) [µM] | also measured
O=c1[nH]c(=S)n(C2C[C@@H](OP(=O)(O)O)[C@@H](COP(=O)(O)O)O2)cc1F (stereo not given in full) | 0.36 | 0.079 | 0.049 | – | – | – | – | – | – | – | – | – | – | – | – | – | – | – | – | k2'' [1]: 0.02 min⁻¹; Ki (Thymidylate synthase [2]): 0.14 µM; Ki (Thymidylate synthase [4]): 0.07 µM; Ki' [5]: 0.041 µM; Ki'' [6]: 0.046 µM; k2'' [7]: 0.06 min⁻¹; k2' [10]: 0.12 min⁻¹
O=c1[nH]c(=O)n([C@H]2C[C@H](O)[C@@H](CO)O2)cc1F (stereo in doubt; 22) [FLOXURIDINE] | – | – | – | 150 | 2 | 5 | 250 | 60 | 5 | 60 | 4 | – | – | – | – | – | – | – | – | –
O=c1[nH]c(=S)n([C@H]2C[C@H](O)[C@@H](CO)O2)cc1F | – | – | – | – | – | – | – | – | – | – | – | 4 | 1 | 4.5 | 5 | 7 | 2 | 4 | 1.4 | –
O=c1[nH]c(=S)n([C@@H]2C[C@H](O)[C@@H](CO)O2)cc1F | – | – | – | – | – | – | – | – | – | – | – | 400 | 10 | 20 | 2000 | 500 | 25 | 100 | 10 | –
O=c1[nH]c(=O)n([C@H]2C[C@H](O)[C@@H](COP(=O)(O)O)O2)cc1F | 0.18 | 0.0055 | 0.071 | – | – | – | – | – | – | – | – | – | – | – | – | – | – | – | – | k2'' [19]: 0.17 min⁻¹; Ki' [20]: 0.0018 µM; k2' [21]: 0.17 min⁻¹; Ki'' [22]: 0.02 µM; k2'' [23]: 0.12 min⁻¹
O=c1[nH]c(=O)n([C@H]2C[C@H](O)[C@@H](CO)O2)cc1F (stereo in doubt) [FLOXURIDINE] | – | – | – | 1 | 0.009 | 0.02 | 3.2 | 0.6 | 0.025 | 0.5 | 0.015 | – | – | – | – | – | – | – | – | –
